The target in experiment [1] is T1, human c-kit (Homo sapiens, UniProt P10721).
T1 construct: GST-tagged recombinant kinase domain of the human c-kit; GST; host or cells: SF-9 insect cells
Briefly: cKIT-Kinase HTRF-Assay (assay 4). The experiment is classed as biochemical. To be noted: for IC50: GST-tagged kinase domain of human c-kit, 10 μM ATP; for Selectivity vs. cKit: IC50 assay 4/IC50 assay 2. The protocol:
Assay 4: cKIT-Kinase HTRF-Assay
c-Kit-inhibitory activity of compounds of the present invention was quantified employing the c-kit HTRF assay as described in the following paragraphs. GST-tagged recombinant kinase domain of the human c-kit expressed in SF-9 cells was used as kinase. As substrate for the kinase reaction biotinylated poly-(Glu,Tyr) (Cis biointernational, France) was used.
c-Kit was incubated for 30 min at 22° C. in the presence of different concentrations of test compounds in 5 μl assay buffer [50 mM Hepes/NaOH pH 7.0, 1 mM MgCl2, 5 mM MnCl2, 1.0 mM dithiothreitol, 0.1 mM sodium ortho-vanadate, 10 μM adenosine-tri-phosphate (ATP), 1.3 μg/ml substrate, 0.001% (v/v) Nonidet-P40 (Sigma), 1% (v/v) dimethylsulfoxide]. The concentration of c-kit was adjusted depending of the activity of the enzyme lot and was chosen appropriate to have the assay in the linear range. The reaction was stopped by the addition of 5 μl of a solution of HTRF detection reagents (0.1 μM streptavidine-XLent and 1 nM PT66-Eu-Chelate, an europium-chelate labelled anti-phospho-tyrosine antibody from Perkin Elmer) in an aqueous EDTA-solution (80 mM EDTA, 0.2% (w/v) bovine serum albumin in 50 mM HEPES/NaOH pH 7.0).
(§1) The resulting mixture was incubated 1 h at 22° C. to allow the binding of the biotinylated phosphorylated peptide to the streptavidine-XLent and the PT66-Eu-Chelate. Subsequently the amount of phosphorylated substrate was evaluated by measurement of the resonance energy transfer from the PT66-Eu-Chelate to the streptavidine-XLent. Therefore, the fluorescence emissions at 620 nm and 665 nm after excitation at 350 nm was measured in a HTRF reader, e.g. a Rubystar (BMG Labtechnologies, Offenburg, Germany) or a Viewlux (Perkin-Elmer). The ratio of the emissions at 665 nm and at 622 nm was taken as the measure for the amount of phosphorylated substrate.
Background: In TR-FRET formats the signal depends on donor and acceptor labels being close together.

Experiment [2] has as its target T2, Tie2 (Homo sapiens, UniProt Q02763). Kind of experiment: Tie2 ELISA assay (assay 1): cellular Tie2 autophosphorylation. The experiment is classed as cell-based. Set-up: expressed in transfected cells; host or cells: CHO (DHFR-deficient), stably transfected. To be noted: CHO cells stably transfected with Tie2, stimulated by angiopoietin-2; Tie2 autophosphorylation by sandwich-ELISA; read-out: Tie 2 activity (assay 1). The protocol: Assay 1: Tie2 ELISA Assay
Cellular activity of compounds of the present invention as inhibitors of Tie2 kinase activity was measured employing a Tie2 ELISA assay as described in the following paragraphs. Herein CHO cell-cultures, which are stably transfected by known techniques with Tie2 using DHFR deficiency as selection marker, are stimulated by angiopoietin-2. The specific autophosphorylation of Tie2 receptors is quantified with a sandwich-ELISA using anti-Tie2 antibodies for catch and anti-phosphotyrosine antibodies coupled to HRP for detection. […]
On the technique in general: ELISA stands for enzyme-linked immunosorbent assay.
Target sequence in this assay (Q02763 23-1124): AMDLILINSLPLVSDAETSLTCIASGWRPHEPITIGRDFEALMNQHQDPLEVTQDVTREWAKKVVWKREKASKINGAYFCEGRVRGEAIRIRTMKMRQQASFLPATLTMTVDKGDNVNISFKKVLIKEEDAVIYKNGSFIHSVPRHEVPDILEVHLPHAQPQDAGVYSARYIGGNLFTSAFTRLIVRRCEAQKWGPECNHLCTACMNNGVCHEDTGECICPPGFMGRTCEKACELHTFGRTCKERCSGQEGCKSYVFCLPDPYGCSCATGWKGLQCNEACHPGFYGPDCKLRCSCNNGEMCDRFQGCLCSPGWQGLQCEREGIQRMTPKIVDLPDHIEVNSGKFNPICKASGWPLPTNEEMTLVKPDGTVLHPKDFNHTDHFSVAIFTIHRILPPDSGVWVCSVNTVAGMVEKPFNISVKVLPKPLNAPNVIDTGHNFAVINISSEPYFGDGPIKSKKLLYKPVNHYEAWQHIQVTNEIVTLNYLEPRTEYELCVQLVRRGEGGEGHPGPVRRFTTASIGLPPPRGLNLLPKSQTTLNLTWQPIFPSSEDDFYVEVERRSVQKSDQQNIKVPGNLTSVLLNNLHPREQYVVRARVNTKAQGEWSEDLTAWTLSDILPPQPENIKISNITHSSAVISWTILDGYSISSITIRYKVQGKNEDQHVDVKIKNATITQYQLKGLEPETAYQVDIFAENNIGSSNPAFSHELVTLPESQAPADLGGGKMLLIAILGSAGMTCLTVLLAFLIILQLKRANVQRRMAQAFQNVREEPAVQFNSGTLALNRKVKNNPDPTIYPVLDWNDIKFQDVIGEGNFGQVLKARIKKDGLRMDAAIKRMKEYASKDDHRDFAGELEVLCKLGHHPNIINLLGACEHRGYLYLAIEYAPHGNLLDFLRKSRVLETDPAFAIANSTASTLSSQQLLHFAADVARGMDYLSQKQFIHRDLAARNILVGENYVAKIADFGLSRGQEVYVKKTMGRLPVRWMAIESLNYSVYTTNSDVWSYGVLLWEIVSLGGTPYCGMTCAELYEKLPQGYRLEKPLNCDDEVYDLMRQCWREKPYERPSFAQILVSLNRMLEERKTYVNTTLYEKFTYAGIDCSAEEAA

The target of experiment [3] is T2, Tie2. Briefly: Tie-2-Kinase HTRF-Assay without kinase preactivation (assay 2). The experiment is classed as biochemical. Set-up: A recombinant fusion protein of GST and the intracellular domains of Tie-2; GST; made in house; host or cells: insect cells (Hi-5). To be noted: GST-Tie-2 intracellular domains, no preactivation, 10 μM ATP.
Excerpt: Assay 2: Tie-2-Kinase HTRF-Assay without Kinase Preactivation
Tie2-inhibitory activity of compounds of the present invention was quantified employing two Tie2 HTRF assay as described in the following paragraphs.
A recombinant fusion protein of GST and the intracellular domains of Tie-2, expressed in insect cells (Hi-5) and purified by Glutathion-Sepharose affinity chromatography was used as kinase. Alternatively, commercially available GST-Tie2-fusion protein (Upstate Biotechnology, Dundee, Scotland) can be used As substrate for the kinase reaction the biotinylated peptide biotin-Ahx-[…] (C-terminus in amid form) was used which can be purchased e.g. from the company Biosynthan GmbH (Berlin-Buch, Germany). Detection of phosphorylated product is achieved specifically by a trimeric detection complex consisting of the phosphorylated substrate, streptavidin-XLent (SA-XLent) which binds to biotin, and Europium Cryptate-labeled anti-phosphotyrosine antibody PT66 which binds to phosphorylated tyrosine.
The reaction was stopped by the addition of 5 μl of an aqueous buffer (25 mM Hepes/NaOH pH 7.5, 0.28% (w/v) bovine serum albumin) containing EDTA (90 mM) and the HTRF (Homogeneous Time Resolved Fluorescence) detection reagents streptavidine-XLent (0.2 μM, from Cis Biointernational, Marcoule, France) and PT66-Eu-Chelate (0.3 ng/μl; a europium-chelate labelled anti-phospho-tyrosine antibody from Perkin Elmer).
as §1, with “substrate peptide” for “substrate”, “substrate peptide.” for “substrate.”
Target sequence in this assay (Q02763 770-1124 limits assumed): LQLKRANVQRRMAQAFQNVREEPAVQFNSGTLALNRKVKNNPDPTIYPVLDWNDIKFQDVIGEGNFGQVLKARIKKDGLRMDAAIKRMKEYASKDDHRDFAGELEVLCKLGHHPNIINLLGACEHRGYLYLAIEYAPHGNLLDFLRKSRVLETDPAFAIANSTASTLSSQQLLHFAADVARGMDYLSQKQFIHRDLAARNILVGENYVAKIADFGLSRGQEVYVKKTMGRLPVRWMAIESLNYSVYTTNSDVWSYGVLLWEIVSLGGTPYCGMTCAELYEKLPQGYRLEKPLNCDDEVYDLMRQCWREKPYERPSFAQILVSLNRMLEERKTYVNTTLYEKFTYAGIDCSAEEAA

Results on twelve compounds are retold here after patent US7825114B2, “Substituted aminopyrazolopyridines and salts thereof, pharmaceutical compositions comprising same, methods of preparing same and uses of same” (Bayer Schering Pharma AG, priority 2006, dated 2010).

T1 sequence (P10721 589-937 limits assumed): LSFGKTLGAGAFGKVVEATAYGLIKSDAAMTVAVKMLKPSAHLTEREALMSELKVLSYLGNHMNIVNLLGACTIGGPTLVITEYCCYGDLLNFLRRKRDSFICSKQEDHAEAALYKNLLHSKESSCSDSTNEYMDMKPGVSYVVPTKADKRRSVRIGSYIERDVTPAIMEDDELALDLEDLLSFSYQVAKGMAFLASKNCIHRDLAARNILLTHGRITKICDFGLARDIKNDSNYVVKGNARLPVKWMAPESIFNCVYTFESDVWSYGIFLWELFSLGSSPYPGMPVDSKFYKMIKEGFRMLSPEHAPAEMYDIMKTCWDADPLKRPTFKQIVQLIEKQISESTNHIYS

As for `CCOC(=O)C1(c2cc(-c3ccc(NC(=O)Nc4ccccc4)cc3)c3c(N)nn(C)c3n2)CC1` [Example 1.1, 1-{3-Amino-1-methyl-4-[4-(3-phenyl-ureido)-phenyl]-1H-pyra-zolo[3,4-b]pyridin-6-yl}-cyclopropanecarboxylic acid ethyl ester], the IC50 lay in the range of 1000 to 10000 nM in experiment [1], 100 to 1000 nM in experiment [2] and 100 to 1000 nM in experiment [3]. Also, the “Selectivity vs. cKit” value in experiment [1] is given as 4.

Turning to `CCOC(=O)C1(c2cc(-c3ccc(NC(=O)Nc4cccc(C(F)(F)F)c4)cc3)c3c(N)nn(C)c3n2)CC1` [Example 1.2, 1-(3-Amino-1-methyl-4-{4-[3-(3-trifluoromethyl-phenyl)-ureido]-phenyl}-1H-pyrazolo[3,4-b]pyridin-6-yl)-cyclopropanecarboxylic acid ethyl ester], the results for the IC50 in experiment [1], in experiment [2] and in experiment [3] were 1000 to 10000 nM, at most 100 nM and at most 100 nM, respectively. Further, the “Selectivity vs. cKit” value in experiment [1] is on record as above 30.

Take `CNC(=O)C1(c2cc(-c3ccc(NC(=O)Nc4cccc(C(F)(F)F)c4)cc3)c3c(N)nn(C)c3n2)CC1` [Example 1.4, 1-(3-Amino-1-methyl-4-{4-[3-(3-trifluoromethyl-phenyl)-ureido]-phenyl}-1H-pyrazolo[3,4-b]pyridin-6-yl)-cyclopropanecarboxylic acid methylamide]: the IC50 was 100 to 1000 nM in experiment [1], 100 to 1000 nM in experiment [2] and at most 100 nM in experiment [3]. For the same compound, the “Selectivity vs. cKit” value in experiment [1] came to 9.

On to `CCNC(=O)C1(c2cc(-c3ccc(NC(=O)Nc4cccc(C(F)(F)F)c4)cc3)c3c(N)nn(C)c3n2)CC1` [Example 1.5, 1-(3-Amino-1-methyl-4-{4-[3-(3-trifluoromethyl-phenyl)-ureido]-phenyl}-1H-pyrazolo[3,4-b]pyridin-6-yl)-cyclopropanecarboxylic acid ethylamide], for which the IC50 in experiment [1] is 1000 to 10000 nM; in experiment [2] it was 100 to 1000 nM; in experiment [3], at most 100 nM. In addition, the “Selectivity vs. cKit” value in experiment [1] is given as above 100.

Regarding `CC(C)NC(=O)C1(c2cc(-c3ccc(NC(=O)Nc4cccc(C(F)(F)F)c4)cc3)c3c(N)nn(C)c3n2)CC1` [Example 1.6, 1-(3-Amino-1-methyl-4-{4-[3-(3-trifluoromethyl-phenyl)-ureido]-phenyl}-1H-pyrazolo[3,4-b]pyridin-6-yl)-cyclopropanecarboxylic acid isopropyl-amide], the IC50 in experiment [1] is 1000 to 10000 nM; in experiment [2] it was at most 100 nM; in experiment [3] it was at most 100 nM. In addition, the “Selectivity vs. cKit” value in experiment [1] is listed as above 100.

Turning to `Cn1nc(N)c2c(-c3ccc(NC(=O)Nc4cccc(C(F)(F)F)c4)cc3)cc(C3(C(=O)Nc4ccccc4)CC3)nc21` [Example 1.7, 1-(3-Amino-1-methyl-4-{4-[3-(3-trifluoromethyl-phenyl)-ureido]-phenyl}-1H-pyrazolo[3,4-b]pyridin-6-yl)-cyclopropanecarboxylic acid phenylamide], the IC50 in experiment [1] was 1000 to 10000 nM; in experiment [2] it was 100 to 1000 nM; in experiment [3], 100 to 1000 nM. The “Selectivity vs. cKit” value in experiment [1] came to 7.

Regarding `Cn1nc(N)c2c(-c3ccc(NC(=O)Nc4cccc(C(F)(F)F)c4)cc3)cc(C3(C(=O)NCCN4CCOCC4)CC3)nc21` [Example 1.8, 1-(3-Amino-1-methyl-4-{4-[3-(3-trifluoromethyl-phenyl)-ureido]-phenyl}-1H-pyrazolo[3,4-b]pyridin-6-yl)-cyclopropanecarboxylic acid (2-morpholin-4-yl-ethyl)-amide], the IC50 in experiment [1] was 1000 to 10000 nM; in experiment [2] it was at most 100 nM; in experiment [3] it was 100 to 1000 nM. In addition, the “Selectivity vs. cKit” value in experiment [1] was determined as 15.

Consider `CN(C)CCNC(=O)C1(c2cc(-c3ccc(NC(=O)Nc4cccc(C(F)(F)F)c4)cc3)c3c(N)nn(C)c3n2)CC1` [Example 1.9, 1-(3-Amino-1-methyl-4-{4-[3-(3-trifluoromethyl-phenyl)-ureido]-phenyl}-1H-pyrazolo[3,4-b]pyridin-6-yl)-cyclopropanecarboxylic acid (2-dimethylamino-ethyl)-amide], for which the IC50 is 100 to 1000 nM in experiment [1], 100 to 1000 nM in experiment [2] and at most 100 nM in experiment [3]. Further, the “Selectivity vs. cKit” value in experiment [1] came to 10.

In the case of `CN(C)C(=O)C1(c2cc(-c3ccc(NC(=O)Nc4cccc(C(F)(F)F)c4)cc3)c3c(N)nn(C)c3n2)CC1` [Example 1.10, 1-(3-Amino-1-methyl-4-{4-[3-(3-trifluoromethyl-phenyl)-ureido]-phenyl}-1H-pyrazolo[3,4-b]pyridin-6-yl)-cyclopropanecarboxylic acid dimethylamide], the IC50 in experiment [1] was 1000 to 10000 nM; in experiment [2], at most 100 nM; in experiment [3], at most 100 nM. The “Selectivity vs. cKit” value in experiment [1] is reported as 12.

With `CCN(CC)C(=O)C1(c2cc(-c3ccc(NC(=O)Nc4cccc(C(F)(F)F)c4)cc3)c3c(N)nn(C)c3n2)CC1` [Example 1.11, 1-(3-Amino-1-methyl-4-{4-[3-(3-trifluoromethyl-phenyl)-ureido]-phenyl}-1H-pyrazolo[3,4-b]pyridin-6-yl)-cyclopropanecarboxylic acid diethylamide], the IC50 in experiment [1] was 1000 to 10000 nM; in experiment [2], at most 100 nM; in experiment [3] it was at most 100 nM. Moreover, the “Selectivity vs. cKit” value in experiment [1] amounted to 24.

On to `Cn1nc(N)c2c(-c3ccc(NC(=O)Nc4cccc(C(F)(F)F)c4)cc3)cc(C3(C(=O)NC4CC4)CC3)nc21` [Example 1.12, 1-(3-Amino-1-methyl-4-{4-[3-(3-trifluoromethyl-phenyl)-ureido]-phenyl}-1H-pyrazolo[3,4-b]pyridin-6-yl)-cyclopropanecarboxylic acid cyclopropylamide], for which the IC50 in experiment [1] is 1000 to 10000 nM; in experiment [2] it was at most 100 nM; in experiment [3] it was at most 100 nM. For the same compound, the “Selectivity vs. cKit” value in experiment [1] is above 100.

For the compound `CN(C)C(=O)C[C@@H]1C[C@H](c2cc(-c3ccc(NC(=O)Nc4cccc(C(F)(F)F)c4)cc3)c3c(N)nn(C)c3n2)C1(C)C` [Example 8.4, 2-[3-(3-Amino-1-methyl-4-{4-[3-(3-trifluoromethyl-phenyl)-ureido]-phenyl}-1H-pyrazolo[3,4-b]pyridin-6-yl)-2,2-dimethyl-cyclobutyl]-N,N-dimethyl-acetamide], the IC50 is 1000 to 10000 nM in experiment [1] and at most 100 nM in experiment [3]. For the same compound, the “Selectivity vs. cKit” value in experiment [1] is on record as 19.
